Experimental data: the supplement of paper PMC7840683
± gives the standard deviation of the averaged measurements.

Test system: HepaRG
Experiment: LDH release cytotoxicity, % of total lysis control; higher = more cytotoxic
Conditions: 48 h
Procedure, shortened: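 Single-lot HepaRG cells in collagen I-coated 96-well plates were treated for 48 h in serum-free induction medium containing 0.5% DMSO with test chemicals in eight-point half-log series up to 100 µM. For total lysis, wells received 0.1% Triton X. LDH in 50 µL spent medium was assayed by resorufin fluorescence with CytoTox-ONE. Percent cytotoxicity was normalized to the on-plate vehicle and total lysis controls, with duplicates averaged.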

Compound	LDH release cytotoxicity (0.03162 µM)	LDH release cytotoxicity (0.1 µM)	LDH release cytotoxicity (0.3162278 µM)	LDH release cytotoxicity (1 µM)	LDH release cytotoxicity (3.16228 µM)	LDH release cytotoxicity (10 µM)	LDH release cytotoxicity (31.6228 µM)	LDH release cytotoxicity (100 µM)	LDH release cytotoxicity (0.031623 µM)	LDH release cytotoxicity (0.316228 µM)
CCCCCCCC(=O)OC [Methyl octanoate]	-0.862 ± 0.64%	-0.372 ± 0.27%	-1.13 ± 0.41%	-1.52 ± 0.096%	-0.786 ± 0.032%	-1.1 ± 0.2%	-1.29 ± 0.035%	0.214 ± 0.17%	–	–
COP(=S)(OC)Oc1ccc([N+](=O)[O-])cc1 [Methyl parathion]	-0.787 ± 0.9%	-0.971 ± 1.1%	0.295 ± 1.4%	-1.21 ± 0.45%	-0.845 ± 0.36%	0.053 ± 0.23%	0.525 ± 0.42%	1.01 ± 0.04%	–	–
COC(=O)c1ccccc1O [Methyl salicylate]	-1.8 ± 0.66%	-0.746 ± 1.1%	-0.192 ± 2.3%	-1.39 ± 0.17%	-1.33 ± 0.058%	-0.567 ± 0.066%	-1.23 ± 0.11%	0.0854 ± 0.3%	–	–
C[C@](N)(Cc1ccc(O)c(O)c1)C(=O)O [Methyldopa sesquihydrate]	-0.769 ± 0.75%	-1.62 ± 1.9%	-0.864 ± 0.56%	-1.87 ± 0.72%	-1.57 ± 0.67%	-0.513 ± 0.67%	-2.01 ± 0.42%	-2.91 ± 0.43%	–	–
N#CSCSC#N [Methylene bis(thiocyanate)]	0.59 ± 0.13%	0.474 ± 0.14%	-0.978 ± 0.4%	-0.877 ± 0.43%	-0.508 ± 0.021%	0.525 ± 0.24%	3.74 ± 0.86%	66.1 ± 1.7%	–	–
C=CCc1ccc(OC)c(OC)c1 [Methyleugenol]	-1.16 ± 1.3%	-0.0217 ± 1.6%	-0.545 ± 1.1%	-0.949 ± 0.59%	-0.679 ± 0.11%	-0.724 ± 0.15%	-0.435 ± 0.59%	0.911 ± 0.18%	–	–
COC(=O)c1ccc(O)cc1 [Methylparaben]	-1.06 ± 1.8%	-1.64 ± 0.78%	-1.84 ± 0.091%	-0.442 ± 2.1%	-0.946 ± 0.85%	-0.563 ± 0.36%	-0.515 ± 0.3%	0.108 ± 1.2%	–	–
CCc1cccc(C)c1N(C(=O)CCl)C(C)COC (stereo not given) [Metolachlor]	-2.35 ± 0.41%	-1.88 ± 0.93%	-2.04 ± 0.75%	-1.88 ± 0.4%	-1.33 ± 0.23%	-1.85 ± 1.5%	-1.51 ± 0.46%	-1.21 ± 0.023%	–	–
CSc1nnc(C(C)(C)C)c(=O)n1N [Metribuzin]	-0.754 ± 0.83%	0.58 ± 1%	-0.959 ± 0.2%	-1.09 ± 0.56%	-1.24 ± 0.2%	-0.985 ± 0.14%	-0.751 ± 0.37%	0.317 ± 0.26%	–	–
COC(=O)C=C(C)OP(=O)(OC)OC [Mevinphos]	-1.49 ± 1.2%	-1.28 ± 0.3%	-0.769 ± 1.7%	-2.52 ± 0.67%	-2.16 ± 0.68%	-0.179 ± 0.88%	-1.3 ± 0.79%	1.1 ± 2%	–	–
CN(C)c1ccc(C(=O)c2ccc(N(C)C)cc2)cc1 [Michler's ketone]	-2.16 ± 0.051%	-1.79 ± 0.22%	-1.41 ± 0.071%	-2.73 ± 1%	2.66 ± 0.82%	9.37 ± 0.13%	7.06 ± 0.09%	12.9 ± 2%	–	–
CC#CC1(O)CCC2C3CCC4=CC(=O)CCC4=C3C(c3ccc(N(C)C)cc3)CC21C (stereo not given) [Mifepristone]	-0.549 ± 0.3%	-1.11 ± 0.089%	-0.633 ± 0.052%	2.47 ± 0.61%	17.4 ± 0.87%	31.5 ± 1.6%	42.2 ± 5.7%	60.9 ± 3%	–	–
ClC1(Cl)C2(Cl)C3(Cl)C4(Cl)C(Cl)(Cl)C5(Cl)C3(Cl)C1(Cl)C5(Cl)C24Cl (stereo not given) [Mirex]	–	-1.3 ± 1.1%	–	-2.25 ± 0.86%	-1.59 ± 0.079%	-1.21 ± 0.25%	-1.01 ± 0.41%	0.619 ± 0.41%	1.5 ± 0.54%	-1.85 ± 0.6%
CCSC(=O)N1CCCCCC1 [Molinate]	-2.17 ± 0.39%	-2.09 ± 0.56%	-1.9 ± 0.36%	-2.25 ± 0.77%	-1.81 ± 0.052%	-1.34 ± 0.51%	-0.237 ± 0.64%	1.3 ± 0.16%	–	–
O=C(O)c1ccccc1C(=O)OCc1ccccc1 [Monobenzyl phthalate]	-6.32 ± 1.2%	-7.14 ± 0.13%	-7.38 ± 0.78%	-7.25 ± 1%	-7.03 ± 0.21%	-6.25 ± 0.21%	-5.79 ± 1.9%	-5.73 ± 0.38%	–	–
CCCCOC(=O)c1ccccc1C(=O)O [Monobutyl phthalate]	-2.25 ± 1%	-2.21 ± 0.79%	-2.76 ± 0.98%	-3.09 ± 0.93%	-2.68 ± 1.3%	-2.9 ± 1.1%	-2.43 ± 1.4%	-0.95 ± 1.3%	–	–
CNC(=O)C=C(C)OP(=O)(OC)OC [Monocrotophos]	-1.04 ± 1%	-1.87 ± 0.34%	-1.93 ± 1.1%	-1.17 ± 1.1%	-1.61 ± 0.6%	-1.39 ± 0.81%	-0.305 ± 0.93%	-0.571 ± 0.54%	–	–
COC(=O)c1ccccc1C(=O)O [Monomethyl phthalate]	–	-1.99 ± 0.55%	–	-2.55 ± 0.86%	-1.73 ± 0.51%	-1.97 ± 0.5%	-0.563 ± 0.24%	0.422 ± 0.27%	-0.688 ± 1.4%	-2.92 ± 0.47%
CN(C)C(=O)Nc1ccc(Cl)cc1 [Monuron]	–	-1.82 ± 0.043%	–	-2.41 ± 0.67%	-2.49 ± 0.18%	-1.39 ± 0.62%	-0.555 ± 1.5%	0.589 ± 0.75%	-1.01 ± 1.8%	-2.23 ± 0.4%
CCCCC(C#N)(Cn1cncn1)c1ccc(Cl)cc1 (stereo not given) [Myclobutanil]	–	0.0936 ± 0.35%	–	-0.556 ± 0.71%	-7.8 ± 0.19%	8.33 ± 0.4%	0.7089 ± 0.0019%	7.68 ± 2.1%	0.809 ± 1.1%	-0.274 ± 0.61%
